Measured values reported in patent US20020051978A1, “Methods and compositions for the identification, assessment, prevention and therapy of human cancers” (priority 2000, published 2002).
Like-named read-outs stand apart in the source and are kept apart here.

Tests used:
[1] = test system: 60 cancer cell lines (NCI 60 cancer cell line series); conditions: cited from earlier work
[2] = test system: 60 cancer cell lines (NCI 60 cancer cell line series); assay: NCI-DTP in vitro cancer screen, sulforhodamine B (SRB) growth inhibition, 48 hour exposure; type: cell-based, human
Method: Cancer Cell Line Preparation. Sixty cancer cell lines were obtained from the National Cancer Institute Developmental Therapeutics Program (NCI-DTP). Procedures for growing cells and testing compounds have been described previously (Scudiero et al., Cancer Res. 1988, 48:4827-4833; Stinson et al., Anticancer Res.; Myers et al., Electrophoresis 1997, 18:647-653). Cells are plated on day 0 at a density individualized for each cell line so that they will generally be sub-confluent at the end of the assay period. On day 1, a compound is added in the format for a duplicate-well, 5-dose, ten-fold interval dose response study.
No-drug, no-cell and no-growth controls are included. On day 3 the cells are processed for staining with sulforhodamine B (SRB), which reflects the amount of cell mass present at the end of a 48 hour exposure to the test agent. From dose response curves based on the SRB data, various parameters can be determined. The one used in the present study is the G15o, defined as the concentration of compound required to inhibit growth of the cell line by 50%. More precisely, the quantity used in the calculation to be described is the potency measure -log{GI50}.
Activity database (A). Table IA, consisting of the growth inhibition (GI5o) values for the 60 cell lines and 24 compounds, was created from the NCI-DTP in vitro cancer screen database. This subset of compounds was selected from the larger 23,000 compound database available from the DTP. The compounds were selected on the basis of their known mechanism of action and chemical structure. The average potency—log{GI50} was extracted from the comma-delimited text files available through the Web at http://www.nci.nih.gov/intra/lmp/jnwbio.htmrl. Subsequently, these log{GI5o} values were inspected manually and classified as indicating either Low, Medium or High sensitivity to each compound.

CS(=O)(=O)OCCCCOS(C)(=O)=O [Busulfan]
-Log (GI50) ([1]; Breast BT-549 (CL5013)): 3.6 | -Log (GI50) ([1]; Breast HS-578T CL5006): 3.6 | -Log (GI50) ([1]; Breast MCF7(I) (CL5001)): 3.7 | -Log (GI50) ([1]; Breast MCF7/ADRr (CL5002)): 3.6 | -Log (GI50) ([1]; Breast MDA-MB-231 CL5005): 3.6 | -Log (GI50) ([1]; Breast MDA-MB-435 (CL5011)): 3.6 | -Log (GI50) ([1]; Breast MDA-N CL5012): 3.7 | -Log (GI50) ([1]; Breast T-47D (CL5014)): 3.6 | -Log (GI50) ([1]; CNS SF-268 CL12014): 3.8 | -Log (GI50) ([1]; CNS SF-295 CL12015): 3.7 | -Log (GI50) ([1]; CNS SF-539 CL12016): 3.6 | -Log (GI50) ([1]; CNS SNB-19 (CL12002)): 3.6 | -Log (GI50) ([1]; CNS SNB-75(I) CL12005): 3.8 | -Log (GI50) ([1]; CNS U251(I) CL12009): 3.6 | -Log (GI50) ([1]; Colon COLO-250 CL4010): 3.6 | -Log (GI50) ([1]; Colon HCC-2998 (CL4002)): 3.7 | -Log (GI50) ([1]; Colon HCT-15 CL4015): 3.6 | -Log (GI50) ([1]; Colon HCT-116 (CL4003)): 3.6 | -Log (GI50) ([1]; Colon HT29(I) CL4001): 3.6 | -Log (GI50) ([1]; Colon KM12 (CL4017)): 3.6 | -Log (GI50) ([1]; Colon SW-620 (CL4009)): 3.7 | -Log (GI50) ([1]; Leukemia CCRF-CEM(I) (CL7003)): 3.8 | -Log (GI50) ([1]; Leukemia HL-60(I) (CL7008)): 3.8 | -Log (GI50) ([1]; Leukemia K562(I) CL7005): 3.6 | -Log (GI50) ([1]; Leukemia MOLT-4 (CL7006)): 3.9 | -Log (GI50) ([1]; Leukemia RPMI-8226(I) (CL7010)): 3.6 | -Log (GI50) ([1]; Leukemia SR CL7019): 4.1 | -Log (GI50) ([1]; Melanoma LOX IMVI CL10001): 3.7 | -Log (GI50) ([1]; Melanoma M14 (CL10014)): 3.6 | -Log (GI50) ([1]; Melanoma MALME-3M CL10002): 3.6 | -Log (GI50) ([1]; Melanoma SK-MEL-2 (CL10005)): 3.6 | -Log (GI50) ([1]; Melanoma SK-MEL-5 (CL10007)): 3.6 | -Log (GI50) ([1]; Melanoma SK-MEL-28 (CL10008)): 3.7 | -Log (GI50) ([1]; Melanoma UACC-62 (CL10020)): 3.7 | -Log (GI50) ([1]; Melanoma UACC-257 (CL10021)): 3.7 | -Log (GI50) ([1]; NCSLC NCI-H522 CL1003): 3.6 | -Log (GI50) ([1]; NSCLC A549/ATCC (CL1004)): 3.7 | -Log (GI50) ([1]; NSCLC EKVX (CL1008)): 3.7 | -Log (GI50) ([1]; NSCLC HOP-62 (CL1026)): 3.7 | -Log (GI50) ([1]; NSCLC HOP-92 (CL1029)): 3.8 | -Log (GI50) ([1]; NSCLC NCI-H23(I) CL1001): 3.6 | -Log (GI50) ([1]; NSCLC NCI-H226 CL1013): 3.7 | -Log (GI50) ([1]; NSCLC NCI-H332M CL1017): 3.6 | -Log (GI50) ([1]; NSCLC NCI-H460 CL1021): 4.0 | -Log (GI50) ([1]; Ovarian IGROV1 CL6010): 3.6 | -Log (GI50) ([1]; Ovarian OVCAR-3 CL6001): 3.7 | -Log (GI50) ([1]; Ovarian OVCAR-4 CL6002): 3.7 | -Log (GI50) ([1]; Ovarian OVCAR-5 CL6003): 3.6 | -Log (GI50) ([1]; Ovarian OVCAR-8 CL6005): 3.6 | -Log (GI50) ([1]; Ovarian SK-OV-3 CL6011): 3.6 | -Log (GI50) ([1]; Prostate DU-145 CL11003): 3.7 | -Log (GI50) ([1]; Prostate PC-3(I) CL11001): 3.6 | -Log (GI50) ([1]; Renal 786-O CL9018): 3.6 | -Log (GI50) ([1]; Renal A498 CL9013): 3.6 | -Log (GI50) ([1]; Renal ACHN CL9023): 3.8 | -Log (GI50) ([1]; Renal CAKI-1 CL9015): 3.9 | -Log (GI50) ([1]; Renal RXF-393 CL9016): 3.9 | -Log (GI50) ([1]; Renal SN12C CL9008): 3.6 | -Log (GI50) ([1]; Renal TK10 CL9024): 3.6 | -Log (GI50) ([1]; Renal UO-31 CL9004): 3.6

Carboplatin
classification of cell line as Low(1), Medium(2) or High(3) sensitivity to compound ([2]; Breast BT-549 (CL5013)): 2 | classification of cell line as Low(1), Medium(2) or High(3) sensitivity to compound ([2]; Breast HS-578T CL5006): 2 | classification of cell line as Low(1), Medium(2) or High(3) sensitivity to compound ([2]; Breast MCF7(I) (CL5001)): 2 | classification of cell line as Low(1), Medium(2) or High(3) sensitivity to compound ([2]; Breast MCF7/ADRr (CL5002)): 2 | classification of cell line as Low(1), Medium(2) or High(3) sensitivity to compound ([2]; Breast MDA-MB-231 CL5005): 1 | classification of cell line as Low(1), Medium(2) or High(3) sensitivity to compound ([2]; Breast MDA-MB-435 (CL5011)): 1 | classification of cell line as Low(1), Medium(2) or High(3) sensitivity to compound ([2]; Breast MDA-N CL5012): 2 | classification of cell line as Low(1), Medium(2) or High(3) sensitivity to compound ([2]; Breast T-47D (CL5014)): 1 | classification of cell line as Low(1), Medium(2) or High(3) sensitivity to compound ([2]; CNS SF-268 CL12014): 3 | classification of cell line as Low(1), Medium(2) or High(3) sensitivity to compound ([2]; CNS SF-295 CL12015): 3 | classification of cell line as Low(1), Medium(2) or High(3) sensitivity to compound ([2]; CNS SF-539 CL12016): 2 | classification of cell line as Low(1), Medium(2) or High(3) sensitivity to compound ([2]; CNS SNB-19 (CL12002)): 2 | classification of cell line as Low(1), Medium(2) or High(3) sensitivity to compound ([2]; CNS SNB-75(I) CL12005): 2 | classification of cell line as Low(1), Medium(2) or High(3) sensitivity to compound ([2]; CNS U251(I) CL12009): 2 | classification of cell line as Low(1), Medium(2) or High(3) sensitivity to compound ([2]; Colon COLO-250 CL4010): 1 | classification of cell line as Low(1), Medium(2) or High(3) sensitivity to compound ([2]; Colon HCC-2998 (CL4002)): 1 | classification of cell line as Low(1), Medium(2) or High(3) sensitivity to compound ([2]; Colon HCT-15 CL4015): 1 | classification of cell line as Low(1), Medium(2) or High(3) sensitivity to compound ([2]; Colon HCT-116 (CL4003)): 2 | classification of cell line as Low(1), Medium(2) or High(3) sensitivity to compound ([2]; Colon HT29(I) CL4001): 1 | classification of cell line as Low(1), Medium(2) or High(3) sensitivity to compound ([2]; Colon KM12 (CL4017)): 1 | classification of cell line as Low(1), Medium(2) or High(3) sensitivity to compound ([2]; Colon SW-620 (CL4009)): 2 | classification of cell line as Low(1), Medium(2) or High(3) sensitivity to compound ([2]; Leukemia CCRF-CEM(I) (CL7003)): 2 | classification of cell line as Low(1), Medium(2) or High(3) sensitivity to compound ([2]; Leukemia HL-60(I) (CL7008)): 3 | classification of cell line as Low(1), Medium(2) or High(3) sensitivity to compound ([2]; Leukemia K562(I) CL7005): 2 | classification of cell line as Low(1), Medium(2) or High(3) sensitivity to compound ([2]; Leukemia MOLT-4 (CL7006)): 2 | classification of cell line as Low(1), Medium(2) or High(3) sensitivity to compound ([2]; Leukemia RPMI-8226(I) (CL7010)): 2 | classification of cell line as Low(1), Medium(2) or High(3) sensitivity to compound ([2]; Leukemia SR CL7019): 2 | classification of cell line as Low(1), Medium(2) or High(3) sensitivity to compound ([2]; Melanoma LOX IMVI CL10001): 2 | classification of cell line as Low(1), Medium(2) or High(3) sensitivity to compound ([2]; Melanoma M14 (CL10014)): 2 | classification of cell line as Low(1), Medium(2) or High(3) sensitivity to compound ([2]; Melanoma MALME-3M CL10002): 2 | sensitivity class NSCLC NCI-H23(I) CL1001 ([2]; cell line NSCLC NCI-H23(I), CL1001): 3 | sensitivity class NSCLC NCI-H332M CL1017 ([2]; cell line NSCLC NCI-H332M, CL1017): 1 | sensitivity class NSCLC NCI-H460 CL1021 ([2]; cell line NSCLC NCI-H460, CL1021): 3 | sensitivity class NSCLC NCI-H522 CL1003 ([2]; cell line NSCLC NCI-H522, CL1003): 3 | sensitivity class Ovarian IGROV1 CL6010 ([2]; cell line Ovarian IGROV1, CL6010): 3 | sensitivity class Ovarian OVCAR-3 CL6001 ([2]; cell line Ovarian OVCAR-3, CL6001): 2 | sensitivity class Ovarian OVCAR-4 CL6002 ([2]; cell line Ovarian OVCAR-4, CL6002): 2 | sensitivity class Ovarian OVCAR-5 CL6003 ([2]; cell line Ovarian OVCAR-5, CL6003): 1 | sensitivity class Ovarian OVCAR-8 CL6005 ([2]; cell line Ovarian OVCAR-8, CL6005): 2 | sensitivity class Ovarian SK-OV-3 CL6011 ([2]; cell line Ovarian SK-OV-3, CL6011): 2 | sensitivity class Prostate DU-145 CL11003 ([2]; cell line Prostate DU-145, CL11003): 2 | sensitivity class Prostate PC-3(I) CL11001 ([2]; cell line Prostate PC-3(I), CL11001): 1 | sensitivity class Renal 786-O CL9018 ([2]; cell line Renal 786-O, CL9018): 2 | sensitivity class Renal A498 CL9013 ([2]; cell line Renal A498, CL9013): 1 | sensitivity class Renal ACHN CL9023 ([2]; cell line Renal ACHN, CL9023): 2 | sensitivity class Renal CAKI-1 CL9015 ([2]; cell line Renal CAKI-1, CL9015): 2 | sensitivity class Renal RXF-393 CL9016 ([2]; cell line Renal RXF-393, CL9016): 2 | sensitivity class Renal SN12C CL9008 ([2]; cell line Renal SN12C, CL9008): 2 | sensitivity class Renal TK10 CL9024 ([2]; cell line Renal TK10, CL9024): 1 | sensitivity class Renal UO-31 CL9004 ([2]; cell line Renal UO-31, CL9004): 2 | 3 # of High ([2]; number of the 60 cell lines classified High (3) sensitivity): 8 | 1 # of Low ([2]; number of the 60 cell lines classified Low (1) sensitivity): 14 | 2 # of Medium ([2]; number of the 60 cell lines classified Medium (2) sensitivity): 38
